Results from article PMC3336786 (The FASEB Journal, 2012).
Positions count from the first letter of the chain named. “And” between values parts separate entries of the source, which are not always exact repeats. Identical values can stand only once. Like-named read-outs stand apart in the source and are kept apart here.

What was measured:
α1V2'Aβ2γ2 = α1V2'Aβ2γ2 (Homo sapiens, UniProt P14867+P18507+P47870, V284A); type: cell-based
RDL = target: T1, RDL (Drosophila melanogaster, UniProt P25123); type: cell-based
T1 sequence (P25123 45-606): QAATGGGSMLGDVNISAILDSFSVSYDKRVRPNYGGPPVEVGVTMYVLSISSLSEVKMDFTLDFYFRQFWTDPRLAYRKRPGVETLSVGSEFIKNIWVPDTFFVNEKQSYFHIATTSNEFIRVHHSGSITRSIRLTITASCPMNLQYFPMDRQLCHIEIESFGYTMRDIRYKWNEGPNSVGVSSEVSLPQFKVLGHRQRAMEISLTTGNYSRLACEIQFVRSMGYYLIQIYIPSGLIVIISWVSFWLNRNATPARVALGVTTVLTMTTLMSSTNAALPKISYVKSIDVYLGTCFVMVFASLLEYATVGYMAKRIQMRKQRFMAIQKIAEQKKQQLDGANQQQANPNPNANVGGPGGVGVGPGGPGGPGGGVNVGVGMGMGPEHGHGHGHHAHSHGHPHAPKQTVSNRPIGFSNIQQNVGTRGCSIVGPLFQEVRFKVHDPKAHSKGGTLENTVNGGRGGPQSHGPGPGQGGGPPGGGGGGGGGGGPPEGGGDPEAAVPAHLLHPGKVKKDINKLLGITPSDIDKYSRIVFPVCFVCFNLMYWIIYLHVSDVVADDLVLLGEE

α1β2γ2 GABAA receptors = α1β2γ2 GABAA receptors (Homo sapiens, UniProt P14867+P18507+P47870); experiment: Two-electrode voltage clamp of α1β2γ2 GABAA receptors in Xenopus oocytes; type: cell-based
Sequence of α1β2γ2 GABAA receptors (P14867 28-456, one chain of several): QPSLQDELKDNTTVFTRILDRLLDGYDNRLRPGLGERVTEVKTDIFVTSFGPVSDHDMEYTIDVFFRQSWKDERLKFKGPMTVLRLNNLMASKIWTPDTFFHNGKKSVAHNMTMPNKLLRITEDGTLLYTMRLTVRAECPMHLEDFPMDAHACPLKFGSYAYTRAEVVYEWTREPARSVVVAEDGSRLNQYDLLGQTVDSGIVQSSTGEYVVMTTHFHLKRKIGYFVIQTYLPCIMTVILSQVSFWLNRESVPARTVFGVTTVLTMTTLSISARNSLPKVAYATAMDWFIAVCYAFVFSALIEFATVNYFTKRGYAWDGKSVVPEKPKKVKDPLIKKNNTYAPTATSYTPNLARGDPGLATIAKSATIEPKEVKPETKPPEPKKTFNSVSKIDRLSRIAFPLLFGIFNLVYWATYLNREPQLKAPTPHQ
Sequence of α1β2γ2 GABAA receptors (P18507 40-475, one chain of several): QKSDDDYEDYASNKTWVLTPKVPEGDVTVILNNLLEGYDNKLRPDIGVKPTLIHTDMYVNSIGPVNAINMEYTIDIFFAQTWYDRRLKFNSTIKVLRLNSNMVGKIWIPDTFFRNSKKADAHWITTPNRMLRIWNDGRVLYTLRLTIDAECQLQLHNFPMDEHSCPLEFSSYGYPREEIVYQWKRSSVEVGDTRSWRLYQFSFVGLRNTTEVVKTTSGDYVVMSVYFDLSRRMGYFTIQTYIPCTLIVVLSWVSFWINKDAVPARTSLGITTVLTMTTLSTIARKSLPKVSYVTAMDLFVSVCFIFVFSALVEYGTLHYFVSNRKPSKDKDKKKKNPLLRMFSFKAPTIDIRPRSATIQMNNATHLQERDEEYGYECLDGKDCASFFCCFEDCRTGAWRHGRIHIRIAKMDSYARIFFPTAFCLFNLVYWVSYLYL

RDLA2'V = target: T2, RDLA2'V (Drosophila melanogaster, UniProt P25123, A301V); experiment: cell-based; type: cell-based
T2 sequence (P25123 45-606 A301V): T1 sequence (P25123 45-606) with A257V

α1V2'Aβ2 = target: T3, α1V2'Aβ2 (Homo sapiens, UniProt P14867+P47870, V284A); type: cell-based
T3 sequence (P14867 28-456 V284A): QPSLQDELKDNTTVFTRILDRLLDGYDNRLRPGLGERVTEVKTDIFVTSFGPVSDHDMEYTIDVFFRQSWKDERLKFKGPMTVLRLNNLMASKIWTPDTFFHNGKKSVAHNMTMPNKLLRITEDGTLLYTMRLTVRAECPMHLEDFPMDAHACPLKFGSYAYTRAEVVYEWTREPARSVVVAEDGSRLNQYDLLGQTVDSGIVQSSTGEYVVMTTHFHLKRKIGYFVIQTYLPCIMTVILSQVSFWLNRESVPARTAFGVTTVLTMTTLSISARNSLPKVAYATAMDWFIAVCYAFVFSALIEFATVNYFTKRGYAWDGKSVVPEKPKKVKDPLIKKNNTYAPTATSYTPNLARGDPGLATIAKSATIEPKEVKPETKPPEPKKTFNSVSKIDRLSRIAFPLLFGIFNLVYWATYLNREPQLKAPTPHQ
T3 sequence (P47870 26-512): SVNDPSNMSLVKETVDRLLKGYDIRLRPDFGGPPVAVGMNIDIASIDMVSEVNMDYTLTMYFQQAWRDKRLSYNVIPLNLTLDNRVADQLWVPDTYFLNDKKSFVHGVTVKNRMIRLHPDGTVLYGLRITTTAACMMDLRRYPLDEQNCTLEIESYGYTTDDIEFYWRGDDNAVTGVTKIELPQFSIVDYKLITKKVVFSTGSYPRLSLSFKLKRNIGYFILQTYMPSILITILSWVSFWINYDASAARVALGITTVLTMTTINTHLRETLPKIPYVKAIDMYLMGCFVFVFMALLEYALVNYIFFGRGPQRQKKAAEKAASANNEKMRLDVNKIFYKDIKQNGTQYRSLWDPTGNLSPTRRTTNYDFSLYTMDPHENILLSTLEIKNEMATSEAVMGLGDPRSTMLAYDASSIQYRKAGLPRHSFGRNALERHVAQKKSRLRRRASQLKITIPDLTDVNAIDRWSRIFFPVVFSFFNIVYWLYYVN

[1] = target: T4, human α1β2 GABAA receptors (Homo sapiens, UniProt P14867+P47870); experiment: Two-electrode voltage clamp of α1β2 GABAA receptors in Xenopus oocytes; type: cell-based; conditions: for IC50: IC50, inhibition of GABA EC50 response
T4 sequence (P14867 28-456): T3 sequence (P14867 28-456 V284A) with A257V
T4 sequence (P47870 26-512): T3 sequence (P47870 26-512)

[2] = system: Canton-S adult D. melanogaster; experiment: Coated vial bioassay, wild-type; type: in vivo; conditions: for LD50: coated vial
RDLT6'V = target: T5, RDLT6'V (Drosophila melanogaster, UniProt P25123, T305V); experiment: Two-electrode voltage clamp of RDLT6'V mutant receptors in Xenopus oocytes; type: cell-based
T5 sequence (P25123 45-606 T305V): T1 sequence (P25123 45-606) with T261V

[3] = system: dieldrin-resistant (Rdl) adult D. melanogaster; experiment: Coated vial bioassay, dieldrin-resistant; type: in vivo; conditions: flies with A2'S mutation; ginkgolides up to 5000 ppm (limited by solubility)
humans = conditions: cited from earlier work
[4] = concentration-inhibition curve at GABA EC50

Sequence of α1V2'Aβ2γ2 (P18507 40-475, one chain of several): as the sequence (P18507 40-475, one chain of several) above

Row | Compound | nH (Hill coefficient) (α1V2'Aβ2γ2; [4]) | nH (Hill coefficient) (RDL; [4]) | IC50 (α1β2γ2 GABAA receptors) [nM] | nH (Hill coefficient) (α1β2γ2 GABAA receptors; [4]) | nH (Hill coefficient) (RDLA2'V; [4]) | nH (Hill coefficient) (α1V2'Aβ2; [4]) | IC50 [1] [nM] | nH (Hill coefficient) [1, 4] | LD50 ([2]; 24 h) [mg/mL] | LD50 ([2]; 48 h) [mg/mL] | LD50 ([2]; 72 h) [mg/mL] | also measured
1 | CC(C)(C)[C@]1(O)CC2OC(=O)CC23C(=O)OC2OC(=O)[C@H](O)C231 (stereo partly shown) [BB, bilobalide] | 1.16 ± 0.20 | 0.89 ± 0.09 | 22900 | 0.68 ± 0.10 | 1.85 ± 0.21 | 1.06 ± 0.10 | 9330 | 0.85 ± 0.10 | 0.331 | 0.009 | 0.006 | IC50 (α1V2'Aβ2γ2): 3550 nM; IC50 (RDL): 316 nM; IC50 (α1V2'Aβ2; IC50, inhibition of GABA EC50 response): 2040 nM
2 | C[C@@H]1C(=O)O[C@H]2C[C@@]34[C@H]5C[C@@H](C(C)(C)C)[C@]36[C@@H](OC(=O)[C@@H]6O)O[C@@]4(C(=O)O5)[C@]21O [GA, ginkgolide A] | 0.86 ± 0.10 | 1.13 ± 0.18 | 38900 | 0.49 ± 0.07 | 1.48 ± 0.19 | 0.87 ± 0.14 | 15800 | 0.65 ± 0.08 | 0.345 | 0.063 | 0.019 | IC50 (RDL; IC50, inhibition of GABA EC50 response, second stable level of inhibition): 3 nM; IC50 (RDL; IC50, inhibition of GABA-evoked RDL currents, as printed in text and Fig. 6): 3.1 nM; IC50 (RDL; pIC50, inhibition of GABA EC50 response, second stable level of inhibition): 3.24 nM
3 | NCCCC(=O)O [GABA, γ-aminobutyric acid, reference compound] | – | – | – | – | – | – | – | – | – | – | – | nH (Hill coefficient) (α1V2'Aβ2γ2; GABA concentration-response): 1.10 ± 0.11; nH (Hill coefficient) (RDL; GABA concentration-response): 1.8 and 1.80 ± 0.20; nH (Hill coefficient) (α1β2γ2 GABAA receptors; GABA concentration-response): 1.64 ± 0.16; nH (Hill coefficient) (RDLA2'V; GABA concentration-response): 2.20 ± 0.02; nH (Hill coefficient) (RDLT6'V; GABA concentration-response): 1.44 ± 0.29; nH (Hill coefficient) (α1V2'Aβ2; GABA concentration-response): 1.14 ± 0.12; increase in GABA sensitivity, α1 2' mutation vs wild type (α1V2'Aβ2; α1V2'A-containing α1β2 and α1β2γ2 receptors): 20–50 fold; nH (Hill coefficient) ([1]; GABA concentration-response): 1.43 ± 0.18
4 | ClC1=C(Cl)[C@]2(Cl)[C@@H]3[C@@H]4C[C@@H]([C@H]5O[C@@H]45)[C@@H]3[C@@]1(Cl)C2(Cl)Cl [dieldrin, reference compound] | – | – | – | – | – | – | – | – | – | – | – | mortality / toxicity (in words) [3]: no significant mortality up to 72 h; LD50 ([2]; 24 h, wild-type flies): 0.002 mg/mL; LD50 ([2]; 48 h, wild-type flies): 0.002 mg/mL; LD50 ([2]; 72 h, wild-type flies): 0.0017 mg/mL; mortality / toxicity (in words) ([2]; wild-type (susceptible) flies): highly effective in killing
5 | N#Cc1nn(-c2c(Cl)cc(C(F)(F)F)cc2Cl)c(N)c1[S+]([O-])C(F)(F)F (stereo not shown) [fipronil] | – | – | – | – | – | – | – | – | – | – | – | U.S. Environmental Protection Agency ranking (humans): moderately toxic
6 | ginkgolide B [GB] | 1.43 ± 0.29 | 1.43 ± 0.14 | – | 0.61 ± 0.06 | 1.02 ± 0.20 | 1.13 ± 0.09 | – | 0.94 ± 0.06 | 0.171 | 0.031 | 0.010 | nH (Hill coefficient) (RDLT6'V; concentration-inhibition curve): 1.00 ± 0.70
